{"source": "paper PMC5917010", "about": "“Structural basis for GPR40 allosteric agonism and incretin stimulation” (Nature Communications, 2018)", "key": {"[1]": {"molecular_target": "hRORalpha (Homo sapiens, UniProt P35398)", "sequence (P35398 whole entry)": "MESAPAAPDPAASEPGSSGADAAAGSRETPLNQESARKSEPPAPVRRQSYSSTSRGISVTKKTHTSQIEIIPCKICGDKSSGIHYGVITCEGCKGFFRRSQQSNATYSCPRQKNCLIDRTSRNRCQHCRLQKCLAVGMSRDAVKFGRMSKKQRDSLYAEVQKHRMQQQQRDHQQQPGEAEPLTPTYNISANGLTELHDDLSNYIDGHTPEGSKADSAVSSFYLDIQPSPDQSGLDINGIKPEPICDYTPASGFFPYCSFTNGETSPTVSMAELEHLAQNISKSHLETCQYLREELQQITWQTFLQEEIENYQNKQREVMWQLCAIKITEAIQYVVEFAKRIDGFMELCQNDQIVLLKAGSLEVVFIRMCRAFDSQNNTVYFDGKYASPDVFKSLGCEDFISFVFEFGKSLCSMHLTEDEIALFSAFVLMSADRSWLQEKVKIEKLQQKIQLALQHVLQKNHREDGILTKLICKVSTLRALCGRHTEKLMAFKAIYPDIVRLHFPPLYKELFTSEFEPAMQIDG", "experiment": "hRORalpha binding"}, "[2]": {"molecular_target": "GPR40 L112A (Homo sapiens, UniProt O14842, L112A)", "sequence (O14842 whole entry L112A)": "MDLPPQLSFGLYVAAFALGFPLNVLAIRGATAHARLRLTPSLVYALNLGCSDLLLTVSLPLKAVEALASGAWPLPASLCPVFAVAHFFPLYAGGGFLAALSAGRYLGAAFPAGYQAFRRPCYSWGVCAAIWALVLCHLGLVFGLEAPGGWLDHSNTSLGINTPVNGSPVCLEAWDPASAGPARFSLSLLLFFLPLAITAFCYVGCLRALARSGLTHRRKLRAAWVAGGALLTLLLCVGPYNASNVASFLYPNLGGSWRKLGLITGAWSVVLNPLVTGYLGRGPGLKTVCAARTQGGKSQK", "experiment": "cAMP accumulation assay, L112A mutant"}, "[3]": {"experiment": "Dog hepatocyte clearance", "format": "in vitro ADME", "details": "hepatocytes"}, "[4]": {"molecular_target": "hGLUCR (Homo sapiens, UniProt P47871)", "sequence (P47871 26-477)": "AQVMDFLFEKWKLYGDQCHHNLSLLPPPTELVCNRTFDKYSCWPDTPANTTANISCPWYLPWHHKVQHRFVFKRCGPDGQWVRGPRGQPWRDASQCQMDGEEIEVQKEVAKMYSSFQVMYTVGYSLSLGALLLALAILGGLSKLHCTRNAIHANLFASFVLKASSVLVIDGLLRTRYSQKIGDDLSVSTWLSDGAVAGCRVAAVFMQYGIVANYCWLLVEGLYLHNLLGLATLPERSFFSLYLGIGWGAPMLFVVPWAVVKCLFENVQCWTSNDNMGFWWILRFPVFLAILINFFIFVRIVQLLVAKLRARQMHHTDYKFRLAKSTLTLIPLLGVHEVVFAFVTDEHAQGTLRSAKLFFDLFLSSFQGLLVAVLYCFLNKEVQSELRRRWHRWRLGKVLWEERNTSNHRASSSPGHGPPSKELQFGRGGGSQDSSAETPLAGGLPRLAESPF", "experiment": "hGLUCR binding"}, "[5]": {"molecular_target": "T1, human GPR40 (Homo sapiens, UniProt O14842)", "T1 construct": "HEK293 cells stably overexpressing full length human GPR40; expressed in transfected cells", "experiment": "Human GPR40 Calcium (Supplementary Table 1)", "format": "cell-based"}, "[6]": {"experiment": "Drug exposure in plasma after oral dose in wild type C57BL/6 mice", "format": "in vivo, mouse", "details": "0.03-10 mpk, Supplementary Fig. 9"}, "[7]": {"molecular_target": "WT GPR40 (Homo sapiens, UniProt O14842)", "sequence (O14842 whole entry)": "as the sequence (O14842 whole entry L112A) above, with A112L counted along it", "experiment": "cAMP accumulation assay (CRE/luc2P), wild type GPR40"}, "[8]": {"molecular_target": "hCDK2 (Homo sapiens, UniProt P24941)", "experiment": "hCDK2 binding"}, "[9]": {"molecular_target": "hRORgamma (Homo sapiens, UniProt P51449)", "sequence (P51449 whole entry)": "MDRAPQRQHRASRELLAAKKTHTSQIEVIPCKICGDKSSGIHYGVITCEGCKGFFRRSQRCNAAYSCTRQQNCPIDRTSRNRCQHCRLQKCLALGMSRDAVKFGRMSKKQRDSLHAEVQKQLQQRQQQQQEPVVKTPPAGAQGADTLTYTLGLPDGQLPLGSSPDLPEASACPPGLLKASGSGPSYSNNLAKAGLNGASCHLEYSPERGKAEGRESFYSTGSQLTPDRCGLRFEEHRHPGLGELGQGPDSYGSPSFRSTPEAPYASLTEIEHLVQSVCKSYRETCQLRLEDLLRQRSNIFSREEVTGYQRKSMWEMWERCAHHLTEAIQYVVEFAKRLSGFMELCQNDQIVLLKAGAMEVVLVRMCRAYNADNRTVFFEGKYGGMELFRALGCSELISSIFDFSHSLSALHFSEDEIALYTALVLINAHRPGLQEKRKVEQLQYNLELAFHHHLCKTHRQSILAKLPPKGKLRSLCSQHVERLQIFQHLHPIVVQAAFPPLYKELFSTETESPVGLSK", "experiment": "hRORgamma binding"}, "[10]": {"molecular_target": "hCDK1 (Homo sapiens, UniProt P06493)", "experiment": "hCDK1 binding"}, "[11]": {"experiment": "Rat hepatocyte clearance", "format": "in vitro ADME", "details": "hepatocytes"}, "[12]": {"molecular_target": "GPR40 L112F (Homo sapiens, UniProt O14842, L112F)", "sequence (O14842 whole entry L112F)": "as the sequence (O14842 whole entry L112A) above, with A112F counted along it", "experiment": "cAMP accumulation assay, L112F mutant"}, "[13]": {"system": "GPR40 KO mice", "experiment": "OGTT in GPR40 KO mice", "format": "in vivo, mouse", "details": "high dose of compound 1", "method": "(§1) Eight to thirteen week old male C57BL/6 or KO mice were used. The day before the study, at 1600 hours, animals were transferred into clean cages and food was removed. The following morning (~0800 hours), mice were randomized by block randomization to treatment groups (N = 5–7 per group) so each group had similar mean and standard deviation of body weight and blood glucose. […] Animals were dosed with vehicle (0.5% MC/0.25% Tween-80) or the test article by oral gavage. Group allocations were not blinded from the experimenters who collected the data. After 60 min compound treatment animals were then given an oral gavage of glucose (2 g/kg). At 0, 15, 30, 60, and 120 min post oral glucose, two glucose readings via glucometers were obtained. The average of two glucose readings was reported at each time point. Data were expressed as mean±standard error (s.e.m.). Blood glucose values were analyzed using ANOVA with repeated measures. Cook’s distance was also calculated from linear regression. All animals were included in the analysis with their individual averaged Cook’s distance < 1. Dunnett’s comparison was performed at each time point by R program. Significance is denoted at p < 0.05."}, "[14]": {"molecular_target": "T1, human GPR40", "experiment": "Human GPR40 IP1", "format": "cell-based"}, "[15]": {"molecular_target": "hRXRalpha (Homo sapiens, UniProt P19793)", "sequence (P19793 whole entry)": "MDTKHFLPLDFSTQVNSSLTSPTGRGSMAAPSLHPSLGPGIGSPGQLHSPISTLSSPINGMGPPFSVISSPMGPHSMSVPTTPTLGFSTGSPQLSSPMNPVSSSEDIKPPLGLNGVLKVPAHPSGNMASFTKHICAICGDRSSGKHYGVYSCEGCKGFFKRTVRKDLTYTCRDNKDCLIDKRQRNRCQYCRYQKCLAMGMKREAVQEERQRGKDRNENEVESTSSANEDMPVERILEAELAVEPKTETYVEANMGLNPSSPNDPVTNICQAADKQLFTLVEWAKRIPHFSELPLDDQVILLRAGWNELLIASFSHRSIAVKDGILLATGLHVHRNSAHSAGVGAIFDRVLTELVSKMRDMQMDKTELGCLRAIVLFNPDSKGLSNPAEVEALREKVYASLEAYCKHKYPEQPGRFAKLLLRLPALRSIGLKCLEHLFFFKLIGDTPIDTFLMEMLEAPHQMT", "experiment": "hRXRalpha binding"}, "[16]": {"molecular_target": "hD1 (Homo sapiens, UniProt P21728)", "sequence (P21728 whole entry)": "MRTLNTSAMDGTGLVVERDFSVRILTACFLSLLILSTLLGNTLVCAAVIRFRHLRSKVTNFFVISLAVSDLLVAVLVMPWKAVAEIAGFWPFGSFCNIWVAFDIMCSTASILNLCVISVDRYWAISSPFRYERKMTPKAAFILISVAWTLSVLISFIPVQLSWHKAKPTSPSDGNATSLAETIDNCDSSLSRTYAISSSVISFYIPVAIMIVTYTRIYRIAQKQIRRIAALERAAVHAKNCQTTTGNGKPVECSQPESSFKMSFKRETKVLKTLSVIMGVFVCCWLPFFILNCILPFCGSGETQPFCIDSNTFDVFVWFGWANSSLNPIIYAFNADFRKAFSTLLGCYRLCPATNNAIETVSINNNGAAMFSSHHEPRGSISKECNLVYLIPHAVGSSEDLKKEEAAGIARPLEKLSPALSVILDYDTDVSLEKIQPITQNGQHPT", "experiment": "hD1 cAMP", "format": "cell-based", "details": "read-out: hD1 cAMP Rel EC50"}, "[17]": {"molecular_target": "hNav1.7 (Homo sapiens, UniProt Q15858)", "sequence (Q15858 whole entry)": "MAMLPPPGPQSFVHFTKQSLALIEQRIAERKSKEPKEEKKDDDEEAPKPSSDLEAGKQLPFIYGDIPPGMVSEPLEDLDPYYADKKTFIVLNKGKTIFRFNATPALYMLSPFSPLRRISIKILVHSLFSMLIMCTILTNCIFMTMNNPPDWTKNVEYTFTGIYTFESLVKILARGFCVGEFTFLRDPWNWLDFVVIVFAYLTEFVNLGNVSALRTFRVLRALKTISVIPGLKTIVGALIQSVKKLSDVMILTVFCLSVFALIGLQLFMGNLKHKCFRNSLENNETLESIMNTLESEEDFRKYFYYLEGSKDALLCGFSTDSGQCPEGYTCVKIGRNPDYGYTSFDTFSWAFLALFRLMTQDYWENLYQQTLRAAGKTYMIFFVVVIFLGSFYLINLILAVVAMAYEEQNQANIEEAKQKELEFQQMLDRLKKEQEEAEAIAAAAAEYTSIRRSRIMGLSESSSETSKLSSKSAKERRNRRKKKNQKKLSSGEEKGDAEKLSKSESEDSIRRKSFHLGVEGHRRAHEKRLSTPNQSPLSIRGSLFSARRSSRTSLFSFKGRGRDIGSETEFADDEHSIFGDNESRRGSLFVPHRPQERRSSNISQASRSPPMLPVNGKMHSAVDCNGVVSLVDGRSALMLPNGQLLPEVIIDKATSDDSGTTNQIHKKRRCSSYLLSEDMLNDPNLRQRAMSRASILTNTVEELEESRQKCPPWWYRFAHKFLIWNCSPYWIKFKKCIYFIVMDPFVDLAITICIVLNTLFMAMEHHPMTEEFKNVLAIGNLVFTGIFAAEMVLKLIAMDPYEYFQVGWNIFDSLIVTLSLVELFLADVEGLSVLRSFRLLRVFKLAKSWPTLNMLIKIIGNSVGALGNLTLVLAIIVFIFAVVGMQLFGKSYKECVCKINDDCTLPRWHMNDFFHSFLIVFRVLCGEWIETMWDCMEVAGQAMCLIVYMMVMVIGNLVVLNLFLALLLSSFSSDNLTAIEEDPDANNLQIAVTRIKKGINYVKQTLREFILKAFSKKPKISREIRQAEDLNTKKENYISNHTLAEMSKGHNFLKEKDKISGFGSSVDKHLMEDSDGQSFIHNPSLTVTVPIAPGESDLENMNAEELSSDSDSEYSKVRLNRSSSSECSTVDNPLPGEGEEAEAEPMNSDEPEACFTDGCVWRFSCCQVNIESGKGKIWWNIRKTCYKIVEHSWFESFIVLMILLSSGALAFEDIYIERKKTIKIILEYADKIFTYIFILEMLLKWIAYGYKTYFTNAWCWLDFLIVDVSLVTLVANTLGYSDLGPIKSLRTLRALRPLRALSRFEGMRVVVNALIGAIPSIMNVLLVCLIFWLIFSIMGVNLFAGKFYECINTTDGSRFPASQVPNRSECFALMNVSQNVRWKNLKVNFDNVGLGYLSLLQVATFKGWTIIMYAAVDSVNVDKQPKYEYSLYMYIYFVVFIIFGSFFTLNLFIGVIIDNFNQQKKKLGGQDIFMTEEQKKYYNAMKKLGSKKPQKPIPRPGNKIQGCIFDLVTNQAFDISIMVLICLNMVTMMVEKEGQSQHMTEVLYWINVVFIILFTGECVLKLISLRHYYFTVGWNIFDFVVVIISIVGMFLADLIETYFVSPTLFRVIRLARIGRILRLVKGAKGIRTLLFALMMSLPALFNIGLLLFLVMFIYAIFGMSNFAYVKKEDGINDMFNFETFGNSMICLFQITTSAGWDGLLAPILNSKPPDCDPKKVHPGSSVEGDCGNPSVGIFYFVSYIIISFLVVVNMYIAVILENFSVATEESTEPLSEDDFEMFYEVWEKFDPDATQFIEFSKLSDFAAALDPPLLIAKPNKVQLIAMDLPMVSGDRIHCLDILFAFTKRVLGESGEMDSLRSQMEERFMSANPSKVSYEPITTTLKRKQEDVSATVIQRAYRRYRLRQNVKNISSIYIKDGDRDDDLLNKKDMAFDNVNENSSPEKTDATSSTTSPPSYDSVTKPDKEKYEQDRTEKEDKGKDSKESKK", "experiment": "hNav1.7 binding", "details": "read-out: hNav1.7 binding Rel IC50"}, "[18]": {"system": "GPCRs (including GPR120), NHRs and Kinases", "experiment": "Selectivity panels against GPCRs, NHRs and Kinases"}, "[19]": {"experiment": "Mouse hepatocyte clearance", "format": "in vitro ADME", "details": "hepatocytes"}, "[20]": {"molecular_target": "T1, human GPR40", "experiment": "Human GPR40 b-arrestin", "format": "cell-based"}, "[21]": {"molecular_target": "T2, human GPR40 (A1 site) (Homo sapiens, UniProt O14842)", "T2 construct": "full length recombinant human GPR40 (GPR40) cDNA; expressed in transfected cells; host or cells: HEK 293, stably transfected; crude cell surface membranes", "T2 sequence (O14842 whole entry)": "as the sequence (O14842 whole entry L112A) above, with A112L counted along it", "experiment": "A1 site radioligand binding with [3H]-TAK-875", "method": "Crude cell surface membranes were prepared from human embryonic kidney 293 (HEK 293) cells stably transfected (for the wild type) or transiently transfected (for the mutants and corresponding wild type) with full length recombinant human GPR40 (GPR40) cDNA, using differential centrifugation methods.\nA1 Site Binding. 10 µL of compound diluted in 100% DMSO and 90 µL of Assay Buffer (50 mM Tris-HCl, pH 7.5, 5 mM CaCl2, 5 mM MgCl2, 0.1% w/v fatty acid-free BSA) were added to a deep 96-well polypropylene assay plate (Beckman Coulter).\nAssays were terminated by filtration through GF/C glass fiber filtermats (Perkin Elmer) presoaked in 50 mM Tris–HCl, pH 7.5, using a Mach III cell harvester (TomTec). Filtermats were washed two times with 5 mL of ice-cold 50 mM Tris–HCl, pH 7.5 buffer, dried 1 h in a convection oven at 60 °C and embedded with Meltilex A solid scintillant (Perkin Elmer). Radioactivity was determined as counts per min (cpm) using a Trilux Microbeta plate scintillation counter (Perkin Elmer)."}, "[22]": {"system": "GPR120 KO mice", "experiment": "OGTT in GPR120 KO mice", "format": "in vivo, mouse", "details": "5 mg/kg", "method": "as §1"}, "[23]": {"system": "GPR40 KO mice", "experiment": "Incretin secretion assay in GPR40 KO mice", "format": "in vivo, mouse"}}}
{"smiles": "COc1ccc(C(=O)N(CC(C)(C)C)c2cccc(C)n2)c(N2CCC(c3cc4ccc([C@@H](CC(=O)O)C5CC5)cc4o3)CC2)c1", "note": "[compound 1]", "values": [{"measurement": "Ki", "setting": "[1]", "value": "> 20", "unit": "µM"}, {"measurement": "EC50", "setting": "[2]", "value": "> 30", "unit": "µM"}, {"measurement": "recovery", "setting": "[3]; no ABT, read-out: Dog Hepatocyte Clearance no ABT % Recovery", "value": 103, "unit": "%"}, {"measurement": "hepatocyte CLint", "setting": "[3]; no ABT, read-out: Dog Hepatocyte Clearance no ABT Intrinsic Clearance", "value": 31.4, "unit": "µL/min/1e6 cells"}, {"measurement": "recovery", "setting": "[3]; with ABT (concentration not stated), read-out: Dog Hepatocyte Clearance ABT % Recovery", "value": 92.8, "unit": "%"}, {"measurement": "hepatocyte CLint", "setting": "[3]; with ABT, read-out: Dog Hepatocyte Clearance ABT Intrinsic Clearance", "value": 19.3, "unit": "µL/min/1e6 cells"}, {"measurement": "Ki", "setting": "[4]", "value": "> 10", "unit": "µM"}, {"measurement": "Emax", "setting": "[5]", "value": 110, "unit": "%"}, {"measurement": "pharmacokinetics in mouse (drug exposures in plasma)", "setting": "[6]", "value": "dose proportional"}, {"measurement": "EC50", "setting": "[7]; cAMP accumulation EC50, GPR40-Gαs signaling, stably transfected cells, Fig. 1c, n = 6", "value": "~0.126", "unit": "µM"}, {"measurement": "EC50", "setting": "[7]; cAMP accumulation EC50, WT, Fig. 6c-e, n = 3", "value": 0.21, "unit": "µM"}, {"measurement": "IC50", "setting": "[8]", "value": "> 20", "unit": "µM"}, {"measurement": "Ki", "setting": "[9]", "value": "> 20", "unit": "µM"}, {"measurement": "IC50", "setting": "[10]", "value": "> 20", "unit": "µM"}, {"measurement": "recovery", "setting": "[11]; no ABT, read-out: Rat Hepatocyte Clearance no ABT % Recovery", "value": 103, "unit": "%"}, {"measurement": "hepatocyte CLint", "setting": "[11]; no ABT, read-out: Rat Hepatocyte Clearance no ABT Intrinsic Clearance", "value": 12.2, "unit": "µL/min/1e6 cells"}, {"measurement": "recovery", "setting": "[11]; with ABT (concentration not stated), read-out: Rat Hepatocyte Clearance ABT % Recovery", "value": 92.8, "unit": "%"}, {"measurement": "hepatocyte CLint", "setting": "[11]; with ABT, read-out: Rat Hepatocyte Clearance ABT Intrinsic Clearance", "value": 3, "unit": "µL/min/1e6 cells"}, {"measurement": "EC50", "setting": "[12]", "value": 0.06, "unit": "µM"}, {"measurement": "improvement in EC50 in L112F mutant over wild type", "setting": "[12]; cAMP accumulation, 240 min", "value": 3, "unit": "fold"}, {"measurement": "blood glucose in OGTT, GPR40 KO", "setting": "[13]", "value": "No change in blood glucose"}, {"measurement": "EC50", "setting": "[14]", "value": "< 50", "unit": "pM"}, {"measurement": "Emax", "setting": "[14]", "value": 484, "unit": "%"}, {"measurement": "Ki", "setting": "[15]", "value": "> 10", "unit": "µM"}, {"measurement": "EC50", "setting": "[16]", "value": "> 80", "unit": "µM"}, {"measurement": "IC50", "setting": "[17]", "value": "> 30", "unit": "µM"}, {"measurement": "selectivity in selectivity panels", "setting": "[18]", "value": "highly selective"}, {"measurement": "recovery", "setting": "[19]; no ABT, read-out: Mouse Hepatocyte Clearance no ABT % Recovery", "value": 103, "unit": "%"}, {"measurement": "hepatocyte CLint", "setting": "[19]; no ABT, read-out: Mouse Hepatocyte Clearance no ABT Intrinsic Clearance", "value": 9.2, "unit": "µL/min/1e6 cells"}, {"measurement": "recovery", "setting": "[19]; with ABT (concentration not stated), read-out: Mouse Hepatocyte Clearance ABT % Recovery", "value": 92.8, "unit": "%"}, {"measurement": "hepatocyte CLint", "setting": "[19]; with ABT, read-out: Mouse Hepatocyte Clearance ABT Intrinsic Clearance", "value": 12.4, "unit": "µL/min/1e6 cells"}, {"measurement": "EC50", "setting": "[20]", "value": 0.0019, "unit": "µM"}, {"measurement": "Emax", "setting": "[20]", "value": 172, "unit": "%"}, {"measurement": "Ki", "setting": "[21]; Supplementary Table 1", "value": "> 5.59", "unit": "µM"}, {"measurement": "effect on [3H]-TAK-875 binding", "setting": "[21]; addition of unlabeled compound, membranes from stably transfected cells", "value": "enhanced binding activity"}, {"measurement": "affinity modulation factor (α)", "setting": "[21]; allosteric modulator titration equation, [3H]-TAK-875 binding, Fig. 1a", "value": 2.4}, {"measurement": "glucose excursion in OGTT, GPR120 KO", "setting": "[22]", "value": "significant decrease in glucose excursion"}, {"measurement": "plasma active GIP concentrations, GPR40 KO", "setting": "[23]", "value": "no effect"}, {"measurement": "plasma total GLP-1 concentrations, GPR40 KO", "setting": "[23]", "value": "no effect"}]}
